Measured values reported in US20130150317A1, “COMPOUNDS FOR THE TREATMENT OF RENAL CELL CARCINOMA” (Myrovlytis Technology Ventures Limited, priority 2010, published 2013).
Like-named read-outs stand apart in the source and are kept apart here.

How the values were obtained:
[1] = tested on: 786-O cells with mutant VHL; assay: SRB growth inhibition in 786-O cells with mutant VHL; format: cell-based, human
From the text: (§1) Human renal carcinoma of BHD origin cells UOK-257 (UOK-FLCN^−) and FLCN transfected UOK-257 cells UOK-FLCN^+ (Yang et al Cancer Genet Cytogenet. 2008 Jan. 15; 180(2):100-9) were provided by Dr Marston Linehan and Dr. Laura S Schmidt (Urologic Oncology Branch, Centre for Cancer Research, National Cancer Institute, National Institutes of Health, Bethesda, Md. 20892, USA). UOK-257 is the only RCC cell line that has been derived from a patient with BHD and harbours a germline FLCN frameshift mutation (c.1285dupC) (predicted, in the absence of nonsense mediated mRNA decay, to lead to premature protein truncation (p.His429ProfsX27) (Yang et al., Cancer Genet Cytogenet, 2008 Jan. 15; 180(2):100-9). We are not aware of any sporadic RCC cell lines with homozygous FLCN inactivation. FTC-133 cells were purchased from ECACC (Salisbury, United Kingdom). These cells are a non-RCC cell line derived from human thyroid carcinoma. 786-0 cells were available from the author's lab (Clifford et al., Hum Mol Genet. 2001 May 1; 10(10):1029-38). 786-O is a kidney cancer cell line that harbours an inactivating VHL gene mutation (c.311delG p.G104fs*55). All cell lines were cultured in DMEM with supplement of 10% foetal bovine serum except for FTC-133 cells which were incubated in medium with DMEM and Hens (1:1).
(§2) The sensitivity of the cell lines to drug-induced cell growth inhibition was determined using the sulphorhodamine B assay (SRB) as described by Lu et al., Clin Cancer Res. 2001:7:2114-23. Briefly, adherent exponentially growing cells were seeded into 96-well plates at 3-5×10^3 cells/100 μl/well. After 20-24 h at 37° C., drugs were added at the appropriate drug concentrations to the wells (final DMSO conc. 1%) as indicated in the Results section. […] The absorbance per well was measured at 570 nm on a Victor X3 Multilabel Plate Reader (PerkinElmor, Beaconsfield, United Kingdom).
Cells were exposed continuously to various concentrations of drugs for 72 hours. GI50 values were determined as the concentrations at 50% growth inhibition from at least three experiments.

[2] = tested on: 786-O cells expressing wt VHL; assay: SRB growth inhibition in 786-O cells expressing wt VHL; format: cell-based; details: Homo sapiens, 786-0; SRB assay, 72 hours
From the text: as §1, with “786-O is a kidney cancer cell line that harbours an inactivating VHL gene mutation (c.311delG p.G104fs*55). All cell lines were cultured in DMEM with supplement of 10% foetal bovine serum except for FTC-133 cells which were incubated in medium with DMEM and Hens (1:1).” left out
The sensitivity of the cell lines to drug-induced cell growth inhibition was determined using the sulphorhodamine B assay (SRB) as described by Lu et al., Clin Cancer Res. 2001:7:2114-23. […] The absorbance per well was measured at 570 nm on a Victor X3 Multilabel Plate Reader (PerkinElmor, Beaconsfield, United Kingdom). […]

[3] = tested on: UOK257-FLCN^+ cells; assay: SRB growth inhibition assay in UOK257-FLCN^+ cells; format: cell-based, human
From the text: as §1, §2
UOK-257 is the only RCC cell line that has been derived from a patient with BHD and harbours a germline FLCN frameshift mutation (c.1285dupC) (predicted, in the absence of nonsense mediated mRNA decay, to lead to premature protein truncation (p.His429ProfsX27) (Yang et al Cancer Genet Cytogenet, 2008 Jan. 15; 180(2):100-9). Both UOK257-FLCN^− and UOK257-FLCN^+ cells were examined for their sensitivities to growth inhibition induced by 15 compounds selected from the COMPARE analysis. Various concentrations of compounds were introduced into the cells 24 hrs after seeding, incubation was continued for 72 hours and growth inhibition was assessed using the suiphorhodamine B (SRB) assay. GI50 values, defined as the concentration of compounds required to inhibit growth by 50%, were then calculated. The ratio of GI50 value from UOK257-FLCN^+ and UOK257-FLCN^− were calculated and used as an indicator for the sensitivity to FLCN mutant cells.

[4] = tested on: UOK257-FLCN^− and UOK257-FLCN^+ cells; assay: CellTiter-Blue cell viability assay in UOK-257 cells with/without FLCN expression; format: cell-based, human; details: 200 nM, 48 hrs
Experimental: The ability to induce caspase 3/7 activation after exposure to compounds was measured by Caspase-Glo 3/7 Assay (Promega, Southampton, United Kingdom) according to manufacturer's instruction. The cells were seeded and dosed as described in growth inhibition assay. At the end of incubation, 70 μl of medium was removed and 30 μl of assay reagent was added to the remaining medium. Additional one hour incubation with shaking was carried out at room temperature. The resultant luminescent light was measured in a Victor X3 Multilabel Plate Reader (PerkinElmer, Beaconsfield, United Kingdom). Cell viability after compound exposure was determined by CellTiter-Blue Cell Viability Assay (Promega, Southampton, the United Kingdom) according to manufacturer's instruction. At the end of drug treatment, 20 μl of reagent was added to the medium in 96 wells and the cells were incubated for additional 4 hours. The cell viability was measured by fluorescence with a 570 nm excitation and 590 nm emission set in a Victor X3 Multilabel Plate Reader (PerkinElmer, Beaconsfield, United Kingdom).
These were calculated and used as indicators for the sensitivity to mutant FLCN cells. Cells were exposed continuously to the indicated concentrations of drugs for 48 hours. Values are the mean±SD from at least three experiments.

[5] = tested on: UOK-FLCN^+ cells; details: 4×GI50 mithramycin, no rapamycin
Experimental: At the end of the time course, media was carefully removed and cells were fixed in 85% ice-cold ethanol. After removal of ethanol, cells were incubated in the dark at 37° C. for 20 minutes in PBS buffers containing 0.1% Triton X-100, 100 mg/mL RNase A and 10 mg/mL Propidium iodide (PI). The 96-well plates were subsequently scanned using the Acumen eX3 cytometer (TTP LabTech).

[6] = tested on: UOK257-FLCN^− cells; assay: Clonogenic cell survival assay in UOK257-FLCN^− cells
Experimental: The final concentration of DMSO in the medium was 1%. Four dishes with two seeding densities for each drug concentration were used and at least three experiments were carried out under each set of conditions. […] The cells were incubated for an additional 10-16 days until visible colonies appeared, which were fixed with Carnoy's fixative (methanol:acetic acid 3:1, v:v), and visualized by staining cells in sulphorhodamine B (0.4%). Colonies with over 30 cells were counted. […] Cell survival following drug exposure was expressed as % control cloning efficiency or survival.

[7] = tested on: caspase3 in UOK257-FLCN^− cells; assay: Western blot of cellular caspase3 protein after mithramycin; format: cell-based, human; details: mithramycin 25, 50, 100, 200 nM, 48 hours
Experimental: Cellular protein expression in UOK Cells with/without FLCN expression in response to drug exposure was determined using total cell extracts at 48 h after treatment, according to standard procedures. Protein concentration was determined using DC protein assay kit according to the manufacturer's instructions (Bio-Rad Laboratories Ltd, Hertfordshire, United Kingdom). Twenty […] of protein from each sample was electrophoresed on 12.5% (w/v) SDS-PAGE gels and electroblotted on to nitrocellulose membrane (Amersham Pharmacia Biotech UK Ltd., Buckinghamshire, United Kingdom). Antibody against FLCN (a gift from Prof. Arnim Pause, Rosalind and Morris Goodman Cancer Centre Montreal, Canada), caspase3 (Cell Signalling Technology, Hertfordshire, United Kingdom), and actin (Sigma-Aldrich Company Ltd., Dorset, United Kingdom) were used. The signal was detected using the enhanced chemiluminescence (ECL+Plus, Amersham) system after addition of anti-mouse IgG-HRP conjugate (DAKO, Ely, United Kingdom).

CO[C@H](C(=O)[C@@H](O)[C@@H](C)O)C1Cc2cc3cc(OC4CC(OC5CC(O)C(O)C(C)O5)C(O)C(C)O4)c(C)c(O)c3c(O)c2C(=O)[C@H]1OC1CC(OC2CC(OC3CC(C)(O)C(O)C(C)O3)C(O)C(C)O2)C(O)C(C)O1 (stereo partly drawn) [mithramycin, Mithramycin]
fold greater growth inhibitory sensitivity in 786-O mutant VHL versus wt VHL [1]: ~3 fold
GI50 ([1]; Homo sapiens, 786-0, 72 h, read-out: GI50 in 786-O cells with mutant VHL): 117 ± 37 nM
GI50 [2]: 299 ± 17 nM
GI50 ([3]; 72 hours continuous exposure, mean ± SE (n), read-out: GI50 nM in UOK-FLCN^+): 634 ± 148 nM
GI50 ([3]; Homo sapiens, 72 h, 72 hours continuous exposure, mean ± SE (n), read-out: GI50 nM in UOK-FLCN^+): 634 ± 148 nM
GI50 ([3]; Homo sapiens, read-out: GI50 in FLCN-wt UOK257 cells): 634 ± 148 nM
ratio of cell viability from UOK257-FLCN^+ and UOK257-FLCN^− (cell death) [4]: 2 fold
increase in S and G2-M phases [5]: 15%
fold more cytotoxic to FLCN-null than FLCN-wild type UOK257 cells (clonogenic survival) ([6]; 200 nM where stated): ~10 fold
viable cells (clonogenic survival), UOK-257 cells without FLCN expression ([6]; 200 nM, 72 hrs exposure): less than 8%
cells survived (clonogenic), UOK257-FLCN^− cells ([6]; 500 nM, 72 hrs exposure): less than 0.1%
active forms of cleaved caspase3 (Western blot) [7]: found at 100 and 200 nM, but not in low concentrations of mithramycin (25 and 50 nM)
